Test results from patent US11241398B2, “Affinity medicant conjugate” (Califia Pharma Inc., priority 2014, dated 2022).
Residues, ends and D or L forms follow the SMILES beside them. *: point of attachment. X3 = CC1=C(C*)C2=C(C)C3(CC3)C(C)(O)C(=O)C2=C1

Key:
8392B cell line [1] = assay: 48 hour exposure, growth or viability by Trypan Blue Exclusion assay, nontarget cell line; assay type: cell-based; settings: for IC50: read-out: Mean IC50 value, 8392B Nontarget Cell Line, 48 hr exposure, 8392B nontarget cell line, 48 hr exposure, mean ± SD, N = 3 unless otherwise indicated
Procedure: (§1) The MV522 cell line is a lung-derived adenocarcinoma cell line. In various embodiments of the invention, the MV522 cell line represents a “target” cell line. […] The two hour toxicity data represents the concentration of a given analog for which a two hour exposure will inhibit 50% of the DNA synthesis activity in a given cell line. The 48 hour exposure data represents the concentration at which a given analog with a 48 hour exposure will inhibit the growth or viability in a given cell line as defined by the standard Trypan Blue Exclusion assay.

MV522 cell line [2] = assay: two hour toxicity: inhibition of 50% of DNA synthesis activity, target cell line; settings: read-out: Mean IC50 value, MV522 Target Cell Line, 2 hr exposure; MV522 target cell line; 2 hr exposure; mean ± SD, N = 3 unless otherwise indicated
Procedure: as §1

8392B cell line [3] = assay: two hour toxicity: inhibition of 50% of DNA synthesis activity, nontarget cell line; assay type: cell-based; settings: read-out: Mean IC50 value, 8392B Nontarget Cell Line, 2 hr exposure, mean ± SD, N = 3 unless otherwise indicated
Procedure: as §1

MV522 cell line [4] = assay: 48 hour exposure, growth or viability by Trypan Blue Exclusion assay, target cell line; assay type: cell-based; settings: read-out: Mean IC50 value, MV522 Target Cell Line, 48 hr exposure, mean ± SD, N = 3 unless otherwise indicated
Procedure: as §1

HT29 (ER Negative) = assay: cytotoxic data IC50, 2 hour exposure, cells not expressing the estrogen receptor; assay type: cell-based; settings: N = 3, mean ± SD
Source text: (§2) MCF7 over express estrogen alpha-receptors.
(§3) MCF7 cells over express estrogen alpha-receptors.

MCF7 (ER positive) = assay: cytotoxic data IC50, 2 hour exposure, cells expressing the estrogen receptor; assay type: cell-based
Source text: as §2, §3

SMILES	IC50 (MV522 cell line [2])	IC50 (8392B cell line [3])	IC50 (MV522 cell line [4])	further results
CC1=C(CO)C2=C(C)C3(CC3)[C@@](C)(O)C(=O)C2=C1 [Analog 002]	–	–	–	inhibition of the nontarget cell line with prolonged exposure (8392B cell line [1]; prolonged exposure period (e.g. 48 hours)): can eventually inhibit the nontarget cell line
CC1=C(COC2OC(CO)C(O)C(O)C2O)C2=C(C)C3(CC3)C(C)(O)C(=O)C2=C1 (stereo not drawn) [Analog 018]	8.8 ± 2.9 µM	–	–	–
CC1=C(CSCCC(N)C(=O)O)C2=C(C)C3(CC3)[C@@](C)(O)C(=O)C2=C1 (stereo partly drawn) [Analog 097]	–	> 82 µM	–	–
CC1=C(CSC[C@@H](C)C(=O)N2CCCC2C(=O)O)C2=C(C)C3(CC3)[C@@](C)(O)C(=O)C2=C1 (stereo partly drawn) [Analog 098]	18.8 ± 2.5 µM	> 65 µM	4.6 ± 0.25 µM	IC50 (8392B cell line [1]): 11.7 ± 1.8 µM
CC1=C2C(=O)C(C)(CO)C=C2C(=O)C(C)(O)C12CC2 (stereo not drawn) [Analog 099]	8.4 ± 1.1 µM	4 ± 0.4 µM	–	–
CC1=C(CSCC(N)C(=O)NC(CC(N)=O)C(=O)NCC(=O)NC(CCCNC(=N)N)C(=O)NC(CS)C(=O)O)C2=C(C)C3(CC3)C(C)(O)C(=O)C2=C1 (stereo not drawn) [Analog 102] (H-C(X3)NGRC-OH; configuration not given here)	> 13 µM	–	–	–
CC(=O)OCC1=C(CO)C=C2C(=O)C(C)(OC(C)=O)C3(CC3)C(C)=C21 (stereo not drawn) [Analog 103]	31.8 ± 4.9 µM	12.1 ± 2 µM	5.9 ± 0.4 µM	–
CC1=C2C(=CC(C)(C)[C@@H]2OC(=O)CCCC(=O)Oc2ccc3c(c2)CC[C@@H]2[C@@H]3CC[C@]3(C)C(=O)CC[C@@H]23)C(=O)[C@](C)(O)C12CC2 [Analog 107]	> 50 µM	> 50 µM	–	–
CC1=C(CCC(=O)Oc2ccc3c(c2)CCC2C3CCC3(C)C(O)CCC23)C2=C(C)C3(CC3)C(C)(O)C(=O)C2=C1 (stereo not drawn) [Analog 108]	12.3 ± 2.3 µM	> 55 µM	0.52 ± 0.05 µM	IC50 (HT29 (ER Negative)): > 55 µM; IC50 (MCF7 (ER positive); N = 3, mean ± SD): 14.1 ± 2.8 µM
CC1=C2C(=CC(C)(C)C2OC(=O)CCCC(=O)Oc2ccc3c(c2)CCC2C3CCC3(C)C(O)CCC23)C(=O)C(C)(O)C12CC2 (stereo not drawn) [Analog 109]	> 50 µM	> 50 µM	–	–
CC1=C(CCC(=O)Oc2ccc3c(c2)CC[C@@H]2[C@@H]3CC[C@]3(C)C(=O)CC[C@@H]23)C2=C(C)C3(CC3)[C@@](C)(O)C(=O)C2=C1 [Analog 110]	> 55 µM	> 55 µM	–	IC50 (8392B cell line [1]): 25.3 ± 2.1 µM; IC50 (HT29 (ER Negative)): > 19 µM; preferential killing of MCF7 (ER positive) versus ER negative cells (MCF7 (ER positive); Table VII): preferentially killed
CC1=C(CCC(=O)OC2CCC3(C)C(CCC4C5CCC(=O)C5(C)CCC43)C2)C2=C(C)C3(CC3)[C@@](C)(O)C(=O)C2=C1 (stereo partly drawn) [Analog 112]	–	14.9 ± 0.1 µM	–	IC50 (8392B cell line [1]): 5.2 ± 0.3 µM
CC1=C2C(=CC(C)(COC(=O)CCCC(=O)O)C2OC(=O)CCCC(=O)O)C(=O)C(C)(O)C12CC2 (stereo not drawn) [Analog 117]	–	–	–	IC50 (8392B cell line [1]): 0.01 ± 0.002 µM
CC1=C2C(=CC(C)(COC(=O)c3cc([N+](=O)[O-])cc([N+](=O)[O-])c3)C2OC(=O)CCCC(=O)O)C(=O)C(C)(O)C12CC2 (stereo not drawn) [Analog 118]	–	24.5 ± 4.5 µM	–	–
CC(=O)ON(C(C)=O)c1ccc(C(=O)OCC2(C)C=C3C(=O)C(C)(O)C4(CC4)C(C)=C3C2O)cc1 (stereo not drawn) [Analog 136]	–	> 6.2 µM	–	–
CC(=O)ON(C(C)=O)c1ccc(C(=O)OCC2(C)C=C3C(=O)C(C)(O)C4(CC4)C(C)=C3C2OC(=O)c2ccc(N(OC(C)=O)C(C)=O)cc2)cc1 (stereo not drawn) [Analog 140]	–	–	> 14 µM	IC50 (8392B cell line [1]): > 14 µM
COC(=O)C1=C(C(=O)OC)C23C=C(C)C1C2=C(C)C1(CC1)C(C)(O)C3O (stereo not drawn) [Analog 141]	–	13.7 ± 1.9 µM	3.7 ± 0.8 µM	–
COC(=O)C1=C(C(=O)OC)C23C=C(C)C1C2=C(C)C1(CC1)C(C)(O)C3=O (stereo not drawn) [Analog 142]	–	–	0.024 ± 0.007 µM	–
CON(CC1=C(C)C=C2C(=O)[C@](C)(O)C3(CC3)C(C)=C21)C(=O)C(N)Cc1c[nH]c2ccccc12 (stereo partly drawn) [Analog 154]	> 70 µM	> 70 µM	–	–
